Assay results published in PubChem BioAssay AID1845206 (Molecular Pharmacology Branch, DTP, NCI, 2023).

Test system: NCI-H1618 multicellular tumor spheroid viability
Assay: Anticancer human tumor NCI-H1618 cell line growth inhibition;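 also: spheroids exposed to agents for 7 days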
Settings: for IC50: curve of first compound; for viability, T/C: stronger effect = lower value
Summary of the method: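 Complex tumor spheroids combined malignant cells with endothelial cells and mesenchymal stem cells. DNA-damaging drugs and DNA repair inhibitors were tested alone and in combination, at half-log dilutions down from clinical Cmax (top 10 microM if Cmax unknown), 0.25% DMSO final.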

[1] = second compound 30 pM, first compound 0.0316 µM
[2] = second compound 30 pM, first compound 0.1 µM
[3] = second compound 30 pM, first compound 0.316 µM
[4] = second compound 30 pM, first compound 1 µM
[5] = second compound 30 pM, first compound 3.16 µM
[6] = second compound 30 pM, first compound 10 µM
[7] = second compound 94.9 pM, first compound 0.0316 µM
[8] = second compound 94.9 pM, first compound 0.1 µM
[9] = second compound 94.9 pM, first compound 0.316 µM
[10] = second compound 94.9 pM, first compound 1 µM
[11] = second compound 94.9 pM, first compound 3.16 µM
[12] = second compound 94.9 pM, first compound 10 µM
[13] = second compound 0.0003 µM, first compound 0.0316 µM
[14] = second compound 0.0003 µM, first compound 0.1 µM
[15] = second compound 0.0003 µM, first compound 0.316 µM
[16] = second compound 0.0003 µM, first compound 1 µM
[17] = second compound 0.0003 µM, first compound 3.16 µM
[18] = second compound 0.0003 µM, first compound 10 µM
[19] = second compound 0.000949 µM, first compound 0.0316 µM
[20] = second compound 0.000949 µM, first compound 0.1 µM
[21] = second compound 0.000949 µM, first compound 0.316 µM
[22] = second compound 0.000949 µM, first compound 1 µM
[23] = second compound 0.000949 µM, first compound 3.16 µM
[24] = second compound 0.000949 µM, first compound 10 µM
[25] = second compound 0.003 µM, first compound 0.0316 µM
[26] = second compound 0.003 µM, first compound 0.1 µM
[27] = second compound 0.003 µM, first compound 0.316 µM
[28] = second compound 0.003 µM, first compound 1 µM
[29] = second compound 0.003 µM, first compound 3.16 µM
[30] = second compound 0.003 µM, first compound 10 µM

For `CC1COCCN1c1cc(-c2ccnn2C)c2ccnc(-c3ccn[nH]3)c2n1` (stereo not given) + COc1cc2c(cc1O)CCNC21CSC2c3c(OC(C)=O)c(C)c4c(c3C(COC1=O)N1C(O)C3Cc5cc(C)c(OC)c(O)c5C(C21)N3C)OCO4, the IC50 (second compound 30 pM) was < 0.0316 µM, the IC50 (second compound 94.9 pM) was < 0.0316 µM and the IC50 (second compound 0.0003 µM) was < 0.0316 µM. For the same molecule, the IC50 (second compound 0.000949 µM) was < 0.0316 µM, the IC50 (second compound 0.003 µM) was < 0.0316 µM and the viability, T/C [1] was 41%. The viability, T/C [2] was 8.59%, the viability, T/C [3] was 2.6% and the viability, T/C [4] was 1.69%. For the same molecule, the viability, T/C [5] was 1.44%, the viability, T/C [6] was 1.07% and the viability, T/C [7] was 4.76%. The viability, T/C [8] was 7.64%, the viability, T/C [9] was 1.66% and the viability, T/C [10] was 2.1%. It also gave a viability, T/C [11] of 0.97%, a viability, T/C [12] of 1.13% and a viability, T/C [13] of 7.32%. The viability, T/C [14] was 1.52%, the viability, T/C [15] was 2.44% and the viability, T/C [16] was 1.22%. For the same molecule, the viability, T/C [17] was 1.2%, the viability, T/C [18] was 1.07% and the viability, T/C [19] was 1.86%. For the same molecule, the viability, T/C [20] was 2.16%, the viability, T/C [21] was 1.58% and the viability, T/C [22] was 1.26%. It also gave a viability, T/C [23] of 1.11%, a viability, T/C [24] of 1.22% and a viability, T/C [25] of 1.5%. The viability, T/C [26] was 1.77%, the viability, T/C [27] was 2.41% and the viability, T/C [28] was 2.07%. It also gave a viability, T/C [29] of 1.2% and a viability, T/C [30] of 1.35%.
`COc1cc(C)[nH]c(=O)c1CN1CCc2c(Cl)cc(C(OC)C3COC3)c(Cl)c2C1=O` (stereo not given) + COc1cc2c(cc1O)CCNC21CSC2c3c(OC(C)=O)c(C)c4c(c3C(COC1=O)N1C(O)C3Cc5cc(C)c(OC)c(O)c5C(C21)N3C)OCO4 was tested, and the IC50 (second compound 30 pM) was > 10 µM, the IC50 (second compound 94.9 pM) was 0.527 µM and the IC50 (second compound 0.0003 µM) was < 0.0316 µM. For the same molecule, the IC50 (second compound 0.000949 µM) was < 0.0316 µM, the IC50 (second compound 0.003 µM) was < 0.0316 µM and the viability, T/C [1] was 73.8%. It also gave a viability, T/C [2] of 74.9%, a viability, T/C [3] of 61.7% and a viability, T/C [4] of 73.8%. For the same molecule, the viability, T/C [5] was 74.4%, the viability, T/C [6] was 67.9% and the viability, T/C [7] was 86.8%. It also gave a viability, T/C [8] of 65.9%, a viability, T/C [9] of 48.3% and a viability, T/C [10] of 57.5%. It also gave a viability, T/C [11] of 31.9%, a viability, T/C [12] of 38.4% and a viability, T/C [13] of 14.9%. The viability, T/C [14] was 19.3%, the viability, T/C [15] was 5.64% and the viability, T/C [16] was 2.68%. It also gave a viability, T/C [17] of 1.81%, a viability, T/C [18] of 3.33% and a viability, T/C [19] of 5.55%. The viability, T/C [20] was 2.33%, the viability, T/C [21] was 3.62% and the viability, T/C [22] was 3.05%. The viability, T/C [23] was 3.08%, the viability, T/C [24] was 3.38% and the viability, T/C [25] was 3.07%. For the same molecule, the viability, T/C [26] was 2.73%, the viability, T/C [27] was 3.33% and the viability, T/C [28] was 2.29%. For the same molecule, the viability, T/C [29] was 1.94% and the viability, T/C [30] was 2.51%.
With `Cc1cc(C)c(CNC(=O)c2cc(-c3ccc(CN4CCOCC4)cc3)cc3c2cnn3C2CCCC2)c(=O)[nH]1` + COc1cc2c(cc1O)CCNC21CSC2c3c(OC(C)=O)c(C)c4c(c3C(COC1=O)N1C(O)C3Cc5cc(C)c(OC)c(O)c5C(C21)N3C)OCO4 the IC50 (second compound 30 pM) was > 10 µM, the IC50 (second compound 94.9 pM) was 1.77 µM and the IC50 (second compound 0.0003 µM) was < 0.0316 µM. For the same molecule, the IC50 (second compound 0.000949 µM) was < 0.0316 µM, the IC50 (second compound 0.003 µM) was < 0.0316 µM and the viability, T/C [1] was 92.5%. It also gave a viability, T/C [2] of 86.8%, a viability, T/C [3] of 89.7% and a viability, T/C [4] of 72.7%. The viability, T/C [5] was 88%, the viability, T/C [6] was 58.6% and the viability, T/C [7] was 46.9%. The viability, T/C [8] was 66.5%, the viability, T/C [9] was 66.9% and the viability, T/C [10] was 55%. For the same molecule, the viability, T/C [11] was 45.7%, the viability, T/C [12] was 44.2% and the viability, T/C [13] was 2.47%. For the same molecule, the viability, T/C [14] was 10.3%, the viability, T/C [15] was 4.67% and the viability, T/C [16] was 5.71%. It also gave a viability, T/C [17] of 2.43%, a viability, T/C [18] of 2.6% and a viability, T/C [19] of 4.74%. It also gave a viability, T/C [20] of 7.05%, a viability, T/C [21] of 2.83% and a viability, T/C [22] of 3.43%. The viability, T/C [23] was 3.12%, the viability, T/C [24] was 2.59% and the viability, T/C [25] was 2.14%. The viability, T/C [26] was 3%, the viability, T/C [27] was 3.25% and the viability, T/C [28] was 4.16%. The viability, T/C [29] was 3.95% and the viability, T/C [30] was 1.24%.
For `Cc1sc2c(c1C)C(c1ccc(Cl)cc1)=NC(CC(=O)Nc1ccc(O)cc1)c1nnc(C)n1-2` (stereo not given) + COc1cc2c(cc1O)CCNC21CSC2c3c(OC(C)=O)c(C)c4c(c3C(COC1=O)N1C(O)C3Cc5cc(C)c(OC)c(O)c5C(C21)N3C)OCO4, the IC50 (second compound 30 pM) was 0.275 µM, the IC50 (second compound 94.9 pM) was 0.157 µM and the IC50 (second compound 0.0003 µM) was < 0.00949 µM. For the same molecule, the IC50 (second compound 0.000949 µM) was < 0.00949 µM, the IC50 (second compound 0.003 µM) was < 0.00949 µM and the viability, T/C (second compound 30 pM, first compound 0.00949 µM) was 86.2%. It also gave a viability, T/C (second compound 30 pM, first compound 0.03 µM) of 116%, a viability, T/C (second compound 30 pM, first compound 0.0949 µM) of 93.5% and a viability, T/C (second compound 30 pM, first compound 0.3 µM) of 45.9%. The viability, T/C (second compound 30 pM, first compound 0.949 µM) was 11.1%, the viability, T/C (second compound 30 pM, first compound 3 µM) was 2.15% and the viability, T/C (second compound 94.9 pM, first compound 0.00949 µM) was 72.2%. It also gave a viability, T/C (second compound 94.9 pM, first compound 0.03 µM) of 84.4%, a viability, T/C (second compound 94.9 pM, first compound 0.0949 µM) of 63.9% and a viability, T/C (second compound 94.9 pM, first compound 0.3 µM) of 29.9%. The viability, T/C (second compound 94.9 pM, first compound 0.949 µM) was 3.78%, the viability, T/C (second compound 94.9 pM, first compound 3 µM) was 1.08% and the viability, T/C (second compound 0.0003 µM, first compound 0.00949 µM) was 22.7%. For the same molecule, the viability, T/C (second compound 0.0003 µM, first compound 0.03 µM) was 2.53%, the viability, T/C (second compound 0.0003 µM, first compound 0.0949 µM) was 10.2% and the viability, T/C (second compound 0.0003 µM, first compound 0.3 µM) was 11.7%. It also gave a viability, T/C (second compound 0.0003 µM, first compound 0.949 µM) of 0.74%, a viability, T/C (second compound 0.0003 µM, first compound 3 µM) of 0.78% and a viability, T/C (second compound 0.000949 µM, first compound 0.00949 µM) of 4.7%. For the same molecule, the viability, T/C (second compound 0.000949 µM, first compound 0.03 µM) was 2.6%, the viability, T/C (second compound 0.000949 µM, first compound 0.0949 µM) was 1.78% and the viability, T/C (second compound 0.000949 µM, first compound 0.3 µM) was 0.74%. It also gave a viability, T/C (second compound 0.000949 µM, first compound 0.949 µM) of 0.65%, a viability, T/C (second compound 0.000949 µM, first compound 3 µM) of 0.37% and a viability, T/C (second compound 0.003 µM, first compound 0.00949 µM) of 2.16%. It also gave a viability, T/C (second compound 0.003 µM, first compound 0.03 µM) of 2.42%, a viability, T/C (second compound 0.003 µM, first compound 0.0949 µM) of 0.82% and a viability, T/C (second compound 0.003 µM, first compound 0.3 µM) of 0.41%. For the same molecule, the viability, T/C (second compound 0.003 µM, first compound 0.949 µM) was 0.26% and the viability, T/C (second compound 0.003 µM, first compound 3 µM) was 0.46%.
`[2H]c1nc(C)nc([2H])c1-c1cc(NC[C@@H](C)c2cccc3c(C(=O)NC)ccnc23)ncn1` + COc1cc2c(cc1O)CCNC21CSC2c3c(OC(C)=O)c(C)c4c(c3C(COC1=O)N1C(O)C3Cc5cc(C)c(OC)c(O)c5C(C21)N3C)OCO4 was tested, and the IC50 (second compound 30 pM) was > 10 µM, the IC50 (second compound 94.9 pM) was 0.249 µM and the IC50 (second compound 0.0003 µM) was < 0.0316 µM. The IC50 (second compound 0.000949 µM) was < 0.0316 µM, the IC50 (second compound 0.003 µM) was < 0.0316 µM and the viability, T/C [1] was 101%. The viability, T/C [2] was 93.8%, the viability, T/C [3] was 87.8% and the viability, T/C [4] was 103%. The viability, T/C [5] was 93.9%, the viability, T/C [6] was 83.3% and the viability, T/C [7] was 90.6%. It also gave a viability, T/C [8] of 61.4%, a viability, T/C [9] of 24.4% and a viability, T/C [10] of 55.4%. The viability, T/C [11] was 52.7%, the viability, T/C [12] was 55.7% and the viability, T/C [13] was 5.13%. It also gave a viability, T/C [14] of 2.89%, a viability, T/C [15] of 3.41% and a viability, T/C [16] of 5.38%. For the same molecule, the viability, T/C [17] was 18.8%, the viability, T/C [18] was 3.93% and the viability, T/C [19] was 3.46%. For the same molecule, the viability, T/C [20] was 3.49%, the viability, T/C [21] was 3.75% and the viability, T/C [22] was 4.59%. It also gave a viability, T/C [23] of 4.63%, a viability, T/C [24] of 4.69% and a viability, T/C [25] of 2.53%. The viability, T/C [26] was 3.55%, the viability, T/C [27] was 4.4% and the viability, T/C [28] was 3.2%. It also gave a viability, T/C [29] of 1.87% and a viability, T/C [30] of 5.37%.
